Measurements: patent publication US7109234B2, “Benzoxathiepine derivatives and their use as medicines” (Pierre Fabre Medicament, priority 2001, dated 2006)
Read-outs that look alike come from different tables or passages of the source.

What was measured:
rat isolated left atrium = assay: Inhibition of the veratrine-induced contraction of the rat isolated left atrium; type: cell-based; settings: for IC50: read-out: Contraction with veratrine Inhibition IC50; for in vitro activity (contraction with veratrine): stated in words
New Zealand rabbits = assay: Occlusion-reperfusion model in the anesthetized animal (ECG ST segment, arterial pressure, heart rate); type: in vivo, rabbit; settings: for Arterial pressure % variation / Heart rate % variation / ST segment % inhibition at 2.5 mg/kg p.o.: 2.5 mg/kg p.o., anesthetized rabbit; for ST segment % inhibition at 2.5 mg/kg p.o.: coronary occlusion-reperfusion; for in vivo activity (inhibition of the raising of the ST segment): stated in words, 2.5 mg/kg by the oral route
Protocol: Thus, the compounds of the invention are capable of normalizing the electrical disturbances of the ECG brought about by a regional ischemia followed by a reperfusion, this being achieved without a significant effect on the hemodynamic parameters. The test in question is carried out according to the technique described in J. Cardiovasc. Pharmacol., 1995, 25, 126 according to the following protocol.
Male New Zealand rabbits (Elévage des Dombes, Romans, Chatillon-sur-Chalaronne, France) weighing 2.2 to 2.7 kg are used. The animals are placed in quarantine for 4 to 8 days with free access to standardized laboratory food before they are used in the experiments. The animals are housed individually. Water filtered through a 0.22 μm filter is freely available from an automatic dispenser. The quarantine area and the experimental laboratory are air-conditioned (temperature: 20±3° C.; relative humidity: 55±5%) and are illuminated from 7 a.m. to 7 p.m. All the animals are treated according to the code of ethics for laboratory animals (Guide for the Care and Use of Laboratory Animals, […], Public Health Service, National Institutes of Health publication No. 85-23, Revised 1985) and the protocol (No. 28) is carried out in accordance with the recommendations of the local research animals ethics committee. The animals are anesthetized using sodium pentobarbital (60 mg/kg) administered intravenously (i.v.) via a catheter positioned in the vein of the ear. The animals are instrumented with respiratory assistance (683 rodent/small animal ventilator, Havard Apparatus, Les Ulis, France). The gas mixture inhaled is enriched in oxygen. The respiratory rhythm, the flow volume and the percentage of oxygen in the gas mixture are adjusted so as to keep the gases in the blood within physiological limits. A polyethylene catheter, introduced into the carotid artery, is used both for the measurements of arterial pressure and to take the samples intended for the analysis of the blood gases (ABL 510, Radiometer, Copenhagen, Denmark). Anesthesia is maintained by injections of sodium pentobarbital as required. The body temperature of the animals is kept at 38–39° C. throughout the duration of the experiment using a heating blanket (Homothermic Blanket, Havard Apparatus). The various catheters are rinsed using a sterile saline solution (0.9%) comprising heparin (150 U.I./ml). The ECG (DII derivation) is recorded in order to measure the variations in the heart rate (RR interval) and in the amplitude of the ST segment. The arterial pressure is digitized and analyzed simultaneously (Dataflow®, Crystal Biotech, Northboro, Mass.). The thorax of the animal is opened at the fourth intercostal space and the pericardium is incised so as to reveal the left coronary artery. A ligature (Vicryl®, 5/0, Ethicon, Paris, France) is passed under this artery. After examining the ECG in order to detect any signs of myocardial lesions (persistent rise of the ST segment above 0.25 mV), a period of stabilization lasting 30 min is systematically observed. Any animal showing a possible myocardial lesion is excluded from the study. The test compound or the vehicle is administered per os (p.o.), as a 1% solution in methyl-cellulose, in a proportion of 1 ml/kg via a gastric tube made of flexible rubber. Anesthesia is produced 60 min after administration of the test compound or of the vehicle. The main coronary artery is then ligated for 10 min, i.e. 60 min after anesthesia, the tension in the ligature is subsequently relaxed completely for 10 min and then reestablished at the end of the procedure. The heart is excised and perfused using a formaldehyde solution (10%). The surface not fixed by the formaldehyde is regarded as the surface at risk.
The parameters measured in the experiment are: • the systolic and diastolic arterial pressure; • the heart rate (measured from the RR intervals); • the amplitude of the ST segment. […]

[1] = rat isolated left atrium, veratrine 100 μg/ml, product added 15 min before

Row | Structure (SMILES) | IC50 (rat isolated left atrium; [1]) | in vitro activity (contraction with veratrine) (rat isolated left atrium) | Arterial pressure % variation (New Zealand rabbits) | Heart rate % variation (New Zealand rabbits) | ST segment % inhibition at 2.5 mg/kg p.o. (New Zealand rabbits) | in vivo activity (inhibition of the raising of the ST segment) (New Zealand rabbits) | IC50 (rat isolated left atrium; Rattus norvegicus)
1 | CC(C)NCC(O)COc1ccc(CC(N)=O)cc1 (stereo not shown) [Atenolol, atenolol] | > 10000 nM | inactive | −9% | −13% | 49% | active | 
2 | COc1ccc([C@@H]2Sc3ccccc3N(CCN(C)C)C(=O)[C@@H]2OC(C)=O)cc1 [Diltiazem, diltiazem] | > 10000 nM | inactive | −27% | −5% | 30% | active | 
3 | CN(c1nc2ccccc2s1)C1CCN(CCCCOc2ccc(F)cc2)CC1 [R 56865] |  |  |  |  | 0% |  | 250 nM

More lines, in order of falling IC50 (rat isolated left atrium; [1]), values ahead:

Row | IC50 (rat isolated left atrium; [1]) | Structure (SMILES) | in vitro activity (contraction with veratrine) (rat isolated left atrium) | Arterial pressure % variation (New Zealand rabbits) | Heart rate % variation (New Zealand rabbits) | ST segment % inhibition at 2.5 mg/kg p.o. (New Zealand rabbits) | in vivo activity (inhibition of the raising of the ST segment) (New Zealand rabbits) | IC50 (rat isolated left atrium; Rattus norvegicus)
4 | 640 nM | COc1ccccc1SC[C@H](CN[C@@H]1COc2ccccc2SC1)OC [Compound 1-1, 3-(R)-[3-(2-Methoxyphenylthio)-2-(S)-methoxypropyl]amino-3,4-dihydro-2H-1,5-benzoxathiepine] |  | 8% | 2% | 85% |  | 
5 | 140 nM | COc1ccccc1SC[C@@H](C)CN[C@@H]1COc2ccccc2SC1 [Compound 1-7, 3-(R)-[3-(2-Methoxyphenylthio)-2-(S)-methylpropyl]amino-3,4-dihydro-2H-1,5-benzoxathiepine] |  | 5% | 0% | 69% |  | 
